Holding throughout (assay type): in vivo
The subject of test [1] is Echinochloa crus-galli (ECHCG). The test can be described thus: Example B post-emergence herbicidal activity, glasshouse pot test. As to conditions: 312 h, rate 250 g/ha, evaluated after 13 days, scale 0-100, read-out: Post-emergence activity ECHCG (100=total damage to plant; 0=no damage to plant). The procedure: (§1) Seeds of a variety of test species were sown in standard soil in pots. After cultivation for one day (pre-emergence) or after 8 days cultivation (post-emergence) under controlled conditions in a glasshouse (at 24/16° C., day/night; 14 hours light; 65% humidity), the plants were sprayed with an aqueous spray solution derived from the formulation of the technical active ingredient of formula I in acetone/water (50:50) solution containing 0.5% Tween 20 (polyoxyethelyene sorbitan monolaurate, CAS RN 9005-64-5). The test plants were then grown in a glasshouse under controlled conditions in a glasshouse (at 24/16° C., day/night; 14 hours light; 65% humidity) and watered twice daily. After 13 days for pre and post-emergence, the test was evaluated (100=total damage to plant; 0=no damage to plant). Setaria faberi (SETFA), Lolium perenne (LOLPE), Alopecurus myosuroides (ALOMY), Echinochloa crus-galli (ECHCG), and Avena fatua (AVEFA). Post-Emergence Activity

In test [2] the test system is Lolium perenne (LOLPE). The description is as above. As to conditions: 312 h, rate 250 g/ha, evaluated after 13 days, scale 0-100, read-out: Post-emergence activity LOLPE (100=total damage to plant; 0=no damage to plant). The procedure:
as §1

The subject of test [3] is Avena fatua (AVEFA). The test is described as above. As to conditions: 312 h, rate 250 g/ha, evaluated after 13 days, scale 0-100, read-out: Post-emergence activity AVEFA (100=total damage to plant; 0=no damage to plant). The method, then: as §1
Test [4] has as its system Alopecurus myosuroides (ALOMY). Described as above. As to conditions: 312 h, rate 250 g/ha, evaluated after 13 days, scale 0-100, read-out: Post-emergence activity ALOMY (100=total damage to plant; 0=no damage to plant). The method, then: as §1
The subject of test [5] is Echinochloa crus-galli (ECHCG). Briefly: Example B pre-emergence herbicidal activity, glasshouse pot test. As to conditions: 312 h, rate 250 g/ha, evaluated after 13 days, scale 0-100, read-out: Pre-emergence activity ECHCG (100=total damage to plant; 0=no damage to plant). The procedure:
as §1, with “Pre-Emergence” for “Post-Emergence”

Test [6] relates to Lolium perenne (LOLPE). The test is described as above. The conditions noted are these: 312 h, rate 250 g/ha, evaluated after 13 days, scale 0-100, read-out: Pre-emergence activity LOLPE (100=total damage to plant; 0=no damage to plant). The method, then: as §1, with “Pre-Emergence” for “Post-Emergence”
For test [7], the system named is Avena fatua (AVEFA). The test is described as above. The conditions noted are these: 312 h, rate 250 g/ha, evaluated after 13 days, scale 0-100, read-out: Pre-emergence activity AVEFA (100=total damage to plant; 0=no damage to plant). The method, then: as §1, with “Pre-Emergence” for “Post-Emergence”
The test system of test [8] is Alopecurus myosuroides (ALOMY). The description is as above. As to conditions: 312 h, rate 250 g/ha, evaluated after 13 days, scale 0-100, read-out: Pre-emergence activity ALOMY (100=total damage to plant; 0=no damage to plant). The method, then: as §1, with “Pre-Emergence” for “Post-Emergence”

Data on 15 compounds can be found in patent publication US8741806B2, “Herbicides” (Syngenta Limited, priority 2009, dated 2014).

With `CCc1ccc(-c2ccc(Cl)cc2F)cc1C1=C(O)C(C)(C)CC(C)(C)C1=O` [Compound T60], the pest or weed control at 250 g/ha is 100% in test [1]; 80% with Lolium perenne (LOLPE) [2]; 30% with Avena fatua (AVEFA) [3]; 10% in test [4]; 90% in test [5]; 80% in the test on Lolium perenne (LOLPE) [6]. Further, the results for the pest or weed control at 250 g/ha (in the test with Avena fatua (AVEFA) [7]; in test [8]) were 30% and 0%, respectively.
Consider `CCc1ccc(-c2c(F)cc(Cl)cc2Cl)cc1C1=C(O)CCCC1=O` [Compound T51], for which the pest or weed control at 250 g/ha in test [1] was 90%; with Lolium perenne (LOLPE) [2], 90%; in the test on Avena fatua (AVEFA) [3] it was 50%; in test [4], 40%; in test [5], 80%; in the test with Lolium perenne (LOLPE) [6] it was 100%. Moreover, the pest or weed control at 250 g/ha in the test with Avena fatua (AVEFA) [7] amounted to 40%; in test [8], 20%.
As for `CCc1ccc(-c2ccc(Cl)s2)cc1C1=C(O)CC(C)(C)CC1=O` [Compound T26], the pest or weed control at 250 g/ha in test [1] was 80%; in the test on Lolium perenne (LOLPE) [2] it was 70%; in the test on Avena fatua (AVEFA) [3] it was 0%; in test [4], 30%; in test [5], 100%; in the test on Lolium perenne (LOLPE) [6] it was 100%. Besides, the pest or weed control at 250 g/ha came to 0% with Avena fatua (AVEFA) [7] and 20% in test [8].
As for `CCc1ccc(-c2ccc(Cl)c(Cl)c2)cc1C1=C(O)C(C)(C)CCC1=O` [Compound T5], the pest or weed control at 250 g/ha in test [1] was 100%; with Lolium perenne (LOLPE) [2], 80%; with Avena fatua (AVEFA) [3], 90%; in test [4], 70%; in test [5] it was 0%; in the test on Lolium perenne (LOLPE) [6] it was 0%. The pest or weed control at 250 g/ha (in the test with Avena fatua (AVEFA) [7]; in test [8]) was 0% throughout.
`CCc1ccc(-c2c(F)cc(Cl)cc2F)cc1C1=C(O)C(C)(C)CCC1=O` [Compound T13]: the pest or weed control at 250 g/ha turned out to be 100% in test [1]; 50% with Lolium perenne (LOLPE) [2]; 0% with Avena fatua (AVEFA) [3]; 0% in test [4]; 40% in test [5]; 50% with Lolium perenne (LOLPE) [6]. For the same compound, the pest or weed control at 250 g/ha (in the test on Avena fatua (AVEFA) [7]; in test [8]) was 0% in each case.
Regarding `CCc1ccc(-c2ccc(Cl)c(F)c2Cl)cc1C1=C(O)C(C)(C)CCC1=O` [Compound T15], the pest or weed control at 250 g/ha came to 100% in test [1]; 50% with Lolium perenne (LOLPE) [2]; 40% with Avena fatua (AVEFA) [3]; 0% in test [4]; 100% in test [5]; 90% in the test with Lolium perenne (LOLPE) [6]. In addition, the pest or weed control at 250 g/ha (in the test on Avena fatua (AVEFA) [7]; in test [8]) was 0% in each case.
`CCc1ccc(-c2ccc(Cl)cc2)cc1C1=C(O)C(C)(C)CC(C)(C)C1=O` [Compound T69]: the pest or weed control at 250 g/ha was determined as 100% in test [1]; 100% with Lolium perenne (LOLPE) [2]; 40% in the test on Avena fatua (AVEFA) [3]; 20% in test [4]; 90% in test [5]; 90% with Lolium perenne (LOLPE) [6]. Further, the pest or weed control at 250 g/ha in the test on Avena fatua (AVEFA) [7] stood at 0%; in test [8], 10%.
For the compound `CCc1ccc(-c2ccc(Cl)nc2Cl)cc1C1=C(O)CCCC1=O` [Compound T57], the pest or weed control at 250 g/ha in test [1] came out at 80%; in the test on Lolium perenne (LOLPE) [2] it was 60%; in the test on Avena fatua (AVEFA) [3] it was 40%; in test [4], 50%; in test [5] it was 20%; in the test with Lolium perenne (LOLPE) [6], 10%. Moreover, the pest or weed control at 250 g/ha (with Avena fatua (AVEFA) [7]; in test [8]) was 0% throughout.
As for `CCc1ccc(-c2ccc(Cl)cc2F)cc1C1=C(O)CCCC1=O` [Compound T45], the pest or weed control at 250 g/ha in test [1] was 100%; in the test with Lolium perenne (LOLPE) [2], 100%; in the test with Avena fatua (AVEFA) [3], 90%; in test [4] it was 40%; in test [5] it was 100%; in the test with Lolium perenne (LOLPE) [6], 100%. In addition, the pest or weed control at 250 g/ha (with Avena fatua (AVEFA) [7]; in test [8]) was 20% in each case.
For the compound `CCc1ccc(-c2ccc(Cl)c(C(F)(F)F)c2)cc1C1=C(O)CCCC1=O` [Compound T41], the pest or weed control at 250 g/ha in test [1] was determined as 90%; with Lolium perenne (LOLPE) [2], 100%; with Avena fatua (AVEFA) [3] it was 50%; in test [4], 60%; in test [5] it was 100%; in the test with Lolium perenne (LOLPE) [6], 100%. Further, the pest or weed control at 250 g/ha came out at 30% in the test with Avena fatua (AVEFA) [7] and 20% in test [8].
Consider `CCc1ccc(-c2c(F)cc(Cl)cc2F)cc1C1=C(O)CC(C)(C)CC1=O` [Compound T28], for which the pest or weed control at 250 g/ha stood at 100% in test [1]; 100% in the test with Lolium perenne (LOLPE) [2]; 50% in the test on Avena fatua (AVEFA) [3]; 30% in test [4]; 100% in test [5]; 90% in the test on Lolium perenne (LOLPE) [6]. In addition, the pest or weed control at 250 g/ha was 40% with Avena fatua (AVEFA) [7] and 20% in test [8].
`CCc1ccc(-c2ccc(Cl)c(Cl)c2)cc1C1=C(O)C(C)(C)CC(C)(C)C1=O` [Compound T67]: the pest or weed control at 250 g/ha in test [1] stood at 80%; in the test on Lolium perenne (LOLPE) [2], 40%; in the test with Avena fatua (AVEFA) [3], 20%; in test [4], 20%; in test [5] it was 60%; with Lolium perenne (LOLPE) [6], 10%. In addition, the results for the pest or weed control at 250 g/ha (in the test with Avena fatua (AVEFA) [7]; in test [8]) were 0% and 10%, respectively.
On to `CCc1ccc(-c2ccc(Cl)c(F)c2)cc1C1=C(O)CCCC1=O` [Compound T56], for which the pest or weed control at 250 g/ha in test [1] was 100%; in the test on Lolium perenne (LOLPE) [2], 100%; in the test with Avena fatua (AVEFA) [3], 100%; in test [4], 60%; in test [5], 100%; with Lolium perenne (LOLPE) [6], 90%. The pest or weed control at 250 g/ha in the test on Avena fatua (AVEFA) [7] amounted to 20%; in test [8], 30%.
Regarding `CCc1ccc(-c2ccc(Cl)c(F)c2F)cc1C1=C(O)C(C)(C)CCC1=O` [Compound T16], the pest or weed control at 250 g/ha in test [1] was determined as 100%; in the test with Lolium perenne (LOLPE) [2], 90%; with Avena fatua (AVEFA) [3] it was 90%; in test [4], 50%; in test [5], 90%; with Lolium perenne (LOLPE) [6], 80%. For the same compound, the pest or weed control at 250 g/ha is 20% with Avena fatua (AVEFA) [7] and 30% in test [8].
As for `CCc1ccc(-c2ccc(Cl)c(C(F)(F)F)c2F)cc1C1=C(O)CCCC1=O` [Compound T53], the pest or weed control at 250 g/ha in test [1] worked out at 100%; in the test with Lolium perenne (LOLPE) [2], 100%; with Avena fatua (AVEFA) [3] it was 80%; in test [4], 40%; in test [5], 40%; with Lolium perenne (LOLPE) [6], 40%. The pest or weed control at 250 g/ha in the test with Avena fatua (AVEFA) [7] was found to be 0%; in test [8], 20%.
